What is called IC50 is the concentration needed to halve the response being measured.

In patent US20230322770A1, “SUBSTITUTED HETEROARYL COMPOUNDS USEFUL AS INHIBITORS OF TLR9” (BRISTOL-MYERS SQUIBB COMPANY, priority 2020, published 2023) one finds IC50 data, which are given here for 14 compounds.

What all share (type): cell-based
Test [1] concerns the target T1, human TLR9 (Homo sapiens, UniProt Q9NR96).
T1 construct: host or cells: HEK-Blue cells (HEK293-derived reporter line)
T1 sequence (Q9NR96 26-1032): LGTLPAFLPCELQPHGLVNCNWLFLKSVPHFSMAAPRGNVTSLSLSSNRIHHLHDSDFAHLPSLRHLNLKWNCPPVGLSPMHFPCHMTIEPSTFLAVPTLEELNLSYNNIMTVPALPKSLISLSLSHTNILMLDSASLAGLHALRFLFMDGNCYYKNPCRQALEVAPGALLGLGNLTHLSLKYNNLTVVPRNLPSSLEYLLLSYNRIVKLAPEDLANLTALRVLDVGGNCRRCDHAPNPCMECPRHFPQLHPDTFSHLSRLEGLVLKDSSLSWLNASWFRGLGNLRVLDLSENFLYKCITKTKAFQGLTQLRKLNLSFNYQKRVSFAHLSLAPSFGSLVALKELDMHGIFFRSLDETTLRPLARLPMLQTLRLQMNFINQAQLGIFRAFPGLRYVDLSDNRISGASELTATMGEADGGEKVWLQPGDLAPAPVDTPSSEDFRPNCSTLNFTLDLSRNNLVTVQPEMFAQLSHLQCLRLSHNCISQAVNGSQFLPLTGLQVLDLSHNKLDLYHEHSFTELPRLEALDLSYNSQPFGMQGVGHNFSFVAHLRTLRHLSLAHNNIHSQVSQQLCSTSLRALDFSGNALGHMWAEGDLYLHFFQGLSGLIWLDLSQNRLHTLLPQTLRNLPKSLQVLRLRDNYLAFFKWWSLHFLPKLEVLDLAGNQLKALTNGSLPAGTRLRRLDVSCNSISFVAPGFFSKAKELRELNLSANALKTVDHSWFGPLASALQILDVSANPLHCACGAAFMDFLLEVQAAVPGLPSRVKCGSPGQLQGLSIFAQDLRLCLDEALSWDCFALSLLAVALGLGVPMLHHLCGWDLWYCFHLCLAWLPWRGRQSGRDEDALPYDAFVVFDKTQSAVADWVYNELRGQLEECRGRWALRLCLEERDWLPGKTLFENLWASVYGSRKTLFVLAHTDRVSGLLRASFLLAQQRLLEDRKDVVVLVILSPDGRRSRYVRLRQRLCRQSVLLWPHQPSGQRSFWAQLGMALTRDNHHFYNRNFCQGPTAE
The experiment in a line: TLR9 inhibition reporter assay (HEK-Blue cells, SEAP reporter). Particulars: HEK-Blue cells overexpressing human TLR9; stimulated with ODN2006 5 nM; SEAP after 22 hour incubation. How it is done:
(§1) TLR7/8/9 Inhibition Reporter Assays
(§2) HEK-Blue™-cells (Invivogen) overexpressing human TLR7, TLR8 or TLR9 receptors were used for screening inhibitors of these receptors using an inducible SEAP (secreted embryonic alkaline phosphatase) reporter gene under the control of the IFN-β minimal promoter fused to five NF-κB and AP-1-binding sites. Briefly, cells are seeded into Greiner 384 well plates (15000 cells per well for TLR7, 20,000 for TLR8 and 25,000 for TLR9) and then treated with test compounds in DMSO to yield a final dose response concentration range of 0.05 nM-50 μM. After a 30 minute compound pre-treatment at room temperature, the cells are then stimulated with a TLR7 ligand (gardiquimod at a final concentration of 7.5 μM), TLR8 ligand (R848 at a final concentration of 15.9 μM) or TLR9 ligand (ODN2006 at a final concentration of 5 nM) to activate NF-κB and AP-1 which induce the production of SEAP. After a 22 hour incubation at 37° C., 5% CO2, SEAP levels are determined with the addition of HEK-Blue™ Detection reagent (Invivogen), a cell culture medium that allows for detection of SEAP, according to manufacturer's specifications. The percent inhibition is determined as the % reduction in the HEK-Blue signal present in wells treated with agonist plus DMSO alone compared to wells treated with a known inhibitor.

Test [2] addresses T2, human TLR7 (Homo sapiens, UniProt Q9NYK1).
T2 construct: host or cells: HEK-Blue cells (HEK293-derived reporter line)
T2 sequence (Q9NYK1 27-1049): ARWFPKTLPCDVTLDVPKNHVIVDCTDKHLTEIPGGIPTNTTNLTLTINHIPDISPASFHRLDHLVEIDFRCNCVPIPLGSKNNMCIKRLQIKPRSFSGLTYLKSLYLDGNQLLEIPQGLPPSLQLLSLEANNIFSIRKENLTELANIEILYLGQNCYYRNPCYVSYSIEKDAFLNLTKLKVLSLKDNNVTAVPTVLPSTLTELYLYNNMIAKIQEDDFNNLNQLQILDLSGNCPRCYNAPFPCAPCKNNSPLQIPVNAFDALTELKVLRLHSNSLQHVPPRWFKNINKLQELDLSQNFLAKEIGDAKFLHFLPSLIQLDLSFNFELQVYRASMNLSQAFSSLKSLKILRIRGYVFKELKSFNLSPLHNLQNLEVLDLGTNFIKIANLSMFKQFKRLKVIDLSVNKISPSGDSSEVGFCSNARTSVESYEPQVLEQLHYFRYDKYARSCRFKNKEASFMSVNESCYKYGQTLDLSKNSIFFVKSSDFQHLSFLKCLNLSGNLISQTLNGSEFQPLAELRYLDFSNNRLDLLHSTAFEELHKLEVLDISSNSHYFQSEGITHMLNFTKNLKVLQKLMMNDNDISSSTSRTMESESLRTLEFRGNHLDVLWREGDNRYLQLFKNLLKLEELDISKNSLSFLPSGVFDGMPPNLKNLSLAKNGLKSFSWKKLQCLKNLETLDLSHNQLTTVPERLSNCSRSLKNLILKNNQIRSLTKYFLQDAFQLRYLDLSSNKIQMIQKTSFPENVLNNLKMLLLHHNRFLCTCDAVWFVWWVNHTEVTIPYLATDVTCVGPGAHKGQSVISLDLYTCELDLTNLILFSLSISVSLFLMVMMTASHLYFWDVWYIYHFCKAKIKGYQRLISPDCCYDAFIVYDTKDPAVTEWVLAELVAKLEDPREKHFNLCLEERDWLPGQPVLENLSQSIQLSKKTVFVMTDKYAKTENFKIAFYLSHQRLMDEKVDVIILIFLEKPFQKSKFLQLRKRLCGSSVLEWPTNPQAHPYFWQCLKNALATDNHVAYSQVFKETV
The experiment in a line: TLR7 inhibition reporter assay (HEK-Blue cells, SEAP reporter). Particulars: HEK-Blue cells overexpressing human TLR7; stimulated with gardiquimod 7.5 μM; SEAP after 22 hour incubation. As to the method: as §1, §2
(In a reporter assay the amount or activity of a reporter protein is the signal.)

The target of test [3] is T3, human TLR8 (Homo sapiens, UniProt Q9NR97).
T3 construct: host or cells: HEK-Blue cells (HEK293-derived reporter line)
T3 sequence (Q9NR97 27-1041): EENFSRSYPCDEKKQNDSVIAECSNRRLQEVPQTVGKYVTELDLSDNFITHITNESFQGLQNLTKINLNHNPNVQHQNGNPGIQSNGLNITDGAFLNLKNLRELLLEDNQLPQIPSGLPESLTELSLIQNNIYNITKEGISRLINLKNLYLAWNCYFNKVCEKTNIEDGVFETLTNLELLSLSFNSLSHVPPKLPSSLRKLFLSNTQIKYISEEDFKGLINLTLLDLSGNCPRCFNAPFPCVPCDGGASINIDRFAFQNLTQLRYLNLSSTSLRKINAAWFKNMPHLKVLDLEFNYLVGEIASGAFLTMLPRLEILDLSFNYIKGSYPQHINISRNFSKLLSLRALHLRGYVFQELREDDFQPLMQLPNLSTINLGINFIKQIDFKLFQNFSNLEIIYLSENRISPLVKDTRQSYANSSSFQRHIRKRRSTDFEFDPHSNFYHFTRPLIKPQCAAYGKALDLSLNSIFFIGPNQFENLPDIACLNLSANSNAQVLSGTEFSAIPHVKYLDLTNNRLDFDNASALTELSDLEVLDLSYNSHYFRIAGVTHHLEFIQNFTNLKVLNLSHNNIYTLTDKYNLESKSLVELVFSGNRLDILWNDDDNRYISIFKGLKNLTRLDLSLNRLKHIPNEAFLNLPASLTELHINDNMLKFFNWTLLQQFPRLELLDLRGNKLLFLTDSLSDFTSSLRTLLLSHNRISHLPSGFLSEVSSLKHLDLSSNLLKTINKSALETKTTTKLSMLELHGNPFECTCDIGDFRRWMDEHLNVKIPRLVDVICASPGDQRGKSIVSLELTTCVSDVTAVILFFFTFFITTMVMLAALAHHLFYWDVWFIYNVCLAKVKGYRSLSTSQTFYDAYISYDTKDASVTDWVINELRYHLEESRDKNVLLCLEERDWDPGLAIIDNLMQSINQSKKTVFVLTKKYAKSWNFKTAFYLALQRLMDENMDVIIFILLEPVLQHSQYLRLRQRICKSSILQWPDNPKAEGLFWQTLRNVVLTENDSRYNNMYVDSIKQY
The experiment in a line: TLR8 inhibition reporter assay (HEK-Blue cells, SEAP reporter). Particulars: HEK-Blue cells overexpressing human TLR8; stimulated with R848 15.9 μM; SEAP after 22 hour incubation. As to the method: as §1, §2

Regarding `CN(C)S(=O)(=O)c1cccc(-c2cc3ncc(-c4ccc(N5CCN(C6CC6)CC5)cc4)cc3n2C)c1` [Example 44], in test [1], the IC50 stood at 0.7 µM. On the same count and under the same terms, to `CC(C)N1C2CCC1CN(c1ccc(-c3cnc4cc(-c5ccc(S(C)(=O)=O)cc5)n(C)c4c3)cc1)C2` [Example 26] belongs 0.094 µM.

Consider `COc1ccc(-c2cc3ncc(-c4ccc(N5CCN(CC6CC6)CC5)cc4)cc3n2C)cc1OC` [Example 8, 6-(4-(4-(cyclopropylmethyl)piperazin-1-yl)phenyl)-2-(3,4-dimethoxyphenyl)-1-methyl-1H-pyrrolo[3,2-b]pyridine], for which the IC50 stood at 14.4 µM in test [2] and 5.6 µM in test [3]. `CC(C)CN1CCN(c2ccc(-c3cnc4cc(-c5ccc(S(C)(=O)=O)cc5)n(C)c4c3)cc2)CC1` [Example 6, 6-(4-(4-Isobutylpiperazin-1-yl)phenyl)-1-methyl-2-(4-(methylsulfonyl)phenyl)-1H-pyrrolo[3,2-b]pyridine] had an IC50 in test [1] of 0.139 µM. Regarding `COc1ccc(-c2cc3ncc(-c4ccc(N5CCN(C(C)C)CC5)nc4)cc3n2C)cc1OC` [Example 9, 2-(3,4-dimethoxyphenyl)-6-(6-(4-isopropylpiperazin-1-yl)pyridin-3-yl)-1-methyl-1H-pyrrolo[3,2-b]pyridine], the IC50 in test [2] amounted to 4.7 µM; in test [3] it was 8.7 µM.

Consider `COc1ccc(-c2cc3ncc(-c4ccc(N5CCN(CCC(C)(C)O)CC5)cc4)cc3n2C)cc1OC` [Example 12, 4-(4-(4-(2-(3,4-dimethoxyphenyl)-1-methyl-1H-pyrrolo[3,2-b]pyridin-6-yl)phenyl)piperazin-1-yl)-2-methylbutan-2-ol], for which the IC50 in test [2] worked out at 4.8 µM; in test [3], 1.3 µM. The like results for `Cn1c(-c2ccc(S(C)(=O)=O)cc2)cc2ncc(-c3ccc(N4CCN(CC(C)(C)O)CC4)cc3)cc21` [Example 15, 2-methyl-1-(4-(4-(1-methyl-2-(4-(methylsulfonyl)phenyl)-1H-pyrrolo[3,2-b]pyridin-6-yl)phenyl)piperazin-1-yl)propan-2-ol] were, in that order, not below 50 µM and 11.2 µM. Regarding `Cn1c(-c2ccc(S(C)(=O)=O)cc2)cc2ncc(-c3ccc(N4CCN(CCC(C)(C)O)CC4)cc3)cc21` [Example 16, -methyl-4-(4-(4-(1-methyl-2-(4-(methylsulfonyl)phenyl)-1H-pyrrolo[3,2-b]pyridin-6-yl)phenyl)piperazin-1-yl)butan-2-ol], the IC50 in test [2] amounted to 8.7 µM; in test [3], 4.7 µM. The like results for `CC(C)N1CCN(c2ccc(-c3cnc4cc(-c5ccc(S(C)(=O)=O)cc5)[nH]c4c3)cc2)CC1` [Example 11, 6-(4-(4-isopropylpiperazin-1-yl)phenyl)-2-(4-(methylsulfonyl)phenyl)-1H-pyrrolo[3,2-b]pyridine] were, in that order, 1.9 µM and more than 50 µM. Take `CC(C)CN1CCN(c2ccc(-c3cnc4cc(-c5ccc(S(C)(=O)=O)cc5)[nH]c4c3)cc2)CC1` [Example 14, 6-(4-(4-isobutylpiperazin-1-yl)phenyl)-2-(4-(methylsulfonyl)phenyl)-1H-pyrrolo[3,2-b]pyridine]: the IC50 was 29.6 µM in test [2] and more than 50 µM in test [3]. With `Cn1c(-c2ccc(S(C)(=O)=O)cc2)cc2ncc(-c3ccc(N4CCN5CCCC5C4)cc3)cc21` (stereo not drawn) [Example 27], half-maximal inhibition in test [1] (IC50) required 0.275 µM.

For `COc1ccc(-c2cc3ncc(-c4ccc(C(=O)N5CCN(C(C)C)CC5)cc4)cc3n2C)cc1OC` [Example 5, (4-(2-(3,4-Dimethoxyphenyl)-1-methyl-1H-pyrrolo[3,2-b]pyridin-6-yl)phenyl)(4-isopropylpiperazin-1-yl)methanone], the values for the IC50 in test [2] and in test [3] were 7.2 µM and 10.2 µM, respectively. The like results for `COc1ccc(-c2cc3ncc(-c4ccc(N5CCN(C(C)C)CC5)cc4)cc3n2C)cc1F` [Example 10, 2-(3-fluoro-4-methoxyphenyl)-6-(4-(4-isopropylpiperazin-1-yl)phenyl)-1-methyl-1H-pyrrolo[3,2-b]pyridine] were, in that order, 15.5 µM and 41.7 µM. The like results for `COc1ccc(-c2cc3ncc(-c4ccc(N5CCNCC5)cc4)cc3n2C)cc1OC` [Example 13, 2-(3,4-dimethoxyphenyl)-1-methyl-6-(4-(piperazin-1-yl)phenyl)-1H-pyrrolo[3,2-b] pyridine] were, in that order, 3 µM and 3.6 µM.
